Laboratory results taken from patent US20100099561A1, “HETEROBICYCLIC ALKYLTHIO-BRIDGED ISOXAZOLINES” (E.I. DU PONT DE NEMOURS AND COMPANY, priority 2008, published 2010).

Assays:
Format in all cases: in vivo
[1] = test system: large crabgrass (Digitaria sanguinalis); assay: Test A postemergence, large crabgrass; settings: 0 to 100 scale (0 no effect, 100 complete control)
Text: (§1) Seeds of barnyardgrass (Echinochloa crus-galli), large crabgrass (Digitaria sanguinalis), giant foxtail (Setaria faberi), morningglory (Ipomoea spp.), pigweed (Amaranthus retroflexus), velvetleaf (Abutilon theophrasti), wheat (Triticum aestivum), and corn (Zea mays) were planted into a blend of loam soil and sand and treated preemergence with a directed soil spray using test chemicals formulated in a non-phytotoxic solvent mixture which included a surfactant. At the same time these species were also treated with postemergence applications of test compounds formulated in the same manner. Plants ranged in height from two to ten cm and were in the one- to two-leaf stage for the postemergence treatment. Treated plants and untreated controls were maintained in a greenhouse for approximately ten days, after which time all treated plants were compared to untreated controls and visually evaluated for injury. Plant response ratings, summarized in Table A, are based on a 0 to 100 scale where 0 is no effect and 100 is complete control. A dash (-) response means no test result.

[2] = test system: umbrella sedge (Cyperus difformis); assay: Test B flooded paddy test, umbrella sedge; settings: Flood, scale 0 to 100
Text: (§2) Plant species in the flooded paddy test consisted of rice (Oryza sativa), umbrella sedge (Cyperus difformis), ducksalad (Heteranthera limosa) and barnyardgrass (Echinochloa crus-galli) grown to the 2-leaf stage for testing. At time of treatment, test pots were flooded to 3 cm above the soil surface, treated by application of test compounds directly to the paddy water, and then maintained at that water depth for the duration of the test. Treated plants and controls were maintained in a greenhouse for 13 to 15 days, after which time all species were compared to controls and visually evaluated. Plant response ratings, summarized in Table B, are based on a scale of 0 to 100 where 0 is no effect and 100 is complete control. A dash (-) response means no test result.

[3] = test system: wheat (Triticum aestivum); assay: Test A preemergence, wheat; settings: 0 to 100 scale (0 no effect, 100 complete control)
Text: as §1

[4] = test system: giant foxtail (Setaria faberi); assay: Test A postemergence, giant foxtail; settings: 0 to 100 scale (0 no effect, 100 complete control)
Text: as §1

[5] = test system: pigweed (Amaranthus retroflexus); assay: Test A postemergence, pigweed; settings: 0 to 100 scale (0 no effect, 100 complete control)
Text: as §1

[6] = test system: velvetleaf (Abutilon theophrasti); assay: Test A postemergence, velvetleaf; settings: 0 to 100 scale (0 no effect, 100 complete control)
Text: as §1

[7] = test system: large crabgrass (Digitaria sanguinalis); assay: Test A preemergence, large crabgrass; settings: 0 to 100 scale (0 no effect, 100 complete control)
Text: as §1

[8] = test system: morningglory (Ipomoea spp.); assay: Test A preemergence, morningglory; settings: 0 to 100 scale (0 no effect, 100 complete control)
Text: as §1

[9] = test system: wheat (Triticum aestivum); assay: Test A postemergence, wheat; settings: 0 to 100 scale (0 no effect, 100 complete control)
Text: as §1

[10] = test system: ducksalad (Heteranthera limosa); assay: Test B flooded paddy test, ducksalad; settings: Flood, scale 0 to 100
Text: as §2

[11] = test system: velvetleaf (Abutilon theophrasti); assay: Test A preemergence, velvetleaf; settings: 0 to 100 scale (0 no effect, 100 complete control)
Text: as §1

[12] = test system: morningglory (Ipomoea spp.); assay: Test A postemergence, morningglory; settings: 0 to 100 scale (0 no effect, 100 complete control)
Text: as §1

[13] = test system: barnyardgrass (Echinochloa crus-galli); assay: Test B flooded paddy test, barnyardgrass; settings: Flood
Text: as §2

[14] = test system: rice (Oryza sativa); assay: Test B flooded paddy test, rice; settings: Flood, scale 0 to 100
Text: as §2

[15] = test system: pigweed (Amaranthus retroflexus); assay: Test A preemergence, pigweed; settings: 0 to 100 scale (0 no effect, 100 complete control)
Text: as §1

[16] = test system: barnyardgrass (Echinochloa crus-galli); assay: Test A postemergence, barnyardgrass; settings: 0 to 100 scale (0 no effect, 100 complete control)
Text: as §1

[17] = test system: corn (Zea mays); assay: Test A postemergence, corn; settings: 0 to 100 scale (0 no effect, 100 complete control)
Text: as §1

[18] = test system: giant foxtail (Setaria faberi); assay: Test A preemergence, giant foxtail; settings: 0 to 100 scale (0 no effect, 100 complete control)
Text: as §1

[19] = test system: corn (Zea mays); assay: Test A preemergence, corn; settings: 0 to 100 scale (0 no effect, 100 complete control)
Text: as §1

[20] = test system: barnyardgrass (Echinochloa crus-galli); assay: Test A preemergence, barnyardgrass; settings: 0 to 100 scale (0 no effect, 100 complete control)
Text: as §1

[21] = 250 g ai/ha, scale 0 to 100 (0 no effect, 100 complete control)

CC1(C)CC([S+]([O-])Cc2c(C(F)(F)F)nc3n(c2=O)CCCO3)=NO1 (stereo not shown) [Compound 3]
Plant response rating, Crabgrass, Large ([1]; 125 g ai/ha): 20 | Plant response rating, Crabgrass, Large ([1]; 500 g ai/ha): 50 | Plant response rating, Sedge, Umbrella ([2]; 62 g ai/ha): 0 | Plant response rating, Sedge, Umbrella ([2]; 250 g ai/ha): 0 | Plant response rating, Wheat ([3]; 125 g ai/ha): 0 | Plant response rating, Wheat ([3]; 500 g ai/ha): 0 | Plant response rating, Foxtail, Giant ([4]; 125 g ai/ha): 0 | Plant response rating, Foxtail, Giant ([4]; 500 g ai/ha): 50 | Plant response rating, Pigweed ([5]; 125 g ai/ha): 0 | Plant response rating, Pigweed ([5]; 500 g ai/ha): 30 | Plant response rating, Velvetleaf ([6]; 125 g ai/ha): 20 | Plant response rating, Velvetleaf ([6]; 500 g ai/ha): 50 | Plant response rating, Crabgrass, Large ([7]; 125 g ai/ha): 50 | Plant response rating, Crabgrass, Large ([7]; 500 g ai/ha): 70 | Plant response rating, Morningglory ([8]; 125 g ai/ha): 0 | Plant response rating, Morningglory ([8]; 500 g ai/ha): 0 | Plant response rating, Wheat ([9]; 125 g ai/ha): 0 | Plant response rating, Wheat ([9]; 500 g ai/ha): 0 | Plant response rating, Ducksalad ([10]; 62 g ai/ha): 0 | Plant response rating, Ducksalad ([10]; 250 g ai/ha): 40 | Plant response rating, Velvetleaf ([11]; 125 g ai/ha): 0 | Plant response rating, Velvetleaf ([11]; 500 g ai/ha): 0 | Plant response rating, Morningglory ([12]; 125 g ai/ha): 0 | Plant response rating, Morningglory ([12]; 500 g ai/ha): 0 | Plant response rating, Barnyardgrass ([13]; 62 g ai/ha, scale 0 to 100): 0 | Plant response rating, Barnyardgrass [13, 21]: 0 | Plant response rating, Rice ([14]; 62 g ai/ha): 0 | Plant response rating, Rice ([14]; 250 g ai/ha): 0 | Plant response rating, Pigweed ([15]; 125 g ai/ha): 40 | Plant response rating, Pigweed ([15]; 500 g ai/ha): 60 | Plant response rating, Barnyardgrass ([16]; 125 g ai/ha): 0 | Plant response rating, Barnyardgrass ([16]; 500 g ai/ha): 50 | Plant response rating, Corn ([17]; 125 g ai/ha): 0 | Plant response rating, Corn ([17]; 500 g ai/ha): 0 | Plant response rating, Foxtail, Giant ([18]; 125 g ai/ha): 40 | Plant response rating, Foxtail, Giant ([18]; 500 g ai/ha): 70 | Plant response rating, Corn ([19]; 125 g ai/ha): 0 | Plant response rating, Corn ([19]; 500 g ai/ha): 0 | Plant response rating, Barnyardgrass ([20]; 125 g ai/ha): 30 | Plant response rating, Barnyardgrass ([20]; 500 g ai/ha): 60

CC1(C)CC(S(=O)(=O)Cc2c(C(F)(F)F)nc3n(c2=O)CCCO3)=NO1 [Compound 4]
Plant response rating, Crabgrass, Large ([1]; 125 g ai/ha): 60 | Plant response rating, Crabgrass, Large ([1]; 500 g ai/ha): 80 | Plant response rating, Sedge, Umbrella ([2]; 31 g ai/ha): 0 | Plant response rating, Sedge, Umbrella ([2]; 62 g ai/ha): 0 | Plant response rating, Sedge, Umbrella ([2]; 125 g ai/ha): 0 | Plant response rating, Sedge, Umbrella ([2]; 250 g ai/ha): 0 | Plant response rating, Wheat ([3]; 125 g ai/ha): 0 | Plant response rating, Wheat ([3]; 500 g ai/ha): 40 | Plant response rating, Foxtail, Giant ([4]; 125 g ai/ha): 70 | Plant response rating, Foxtail, Giant ([4]; 500 g ai/ha): 80 | Plant response rating, Pigweed ([5]; 125 g ai/ha): 30 | Plant response rating, Pigweed ([5]; 500 g ai/ha): 60 | Plant response rating, Velvetleaf ([6]; 125 g ai/ha): 50 | Plant response rating, Velvetleaf ([6]; 500 g ai/ha): 70 | Plant response rating, Crabgrass, Large ([7]; 125 g ai/ha): 60 | Plant response rating, Crabgrass, Large ([7]; 500 g ai/ha): 100 | Plant response rating, Morningglory ([8]; 125 g ai/ha): 0 | Plant response rating, Morningglory ([8]; 500 g ai/ha): 70 | Plant response rating, Wheat ([9]; 125 g ai/ha): 0 | Plant response rating, Wheat ([9]; 500 g ai/ha): 10 | Plant response rating, Ducksalad ([10]; 31 g ai/ha): 0 | Plant response rating, Ducksalad ([10]; 62 g ai/ha): 0 | Plant response rating, Ducksalad ([10]; 125 g ai/ha): 0 | Plant response rating, Ducksalad ([10]; 250 g ai/ha): 0 | Plant response rating, Velvetleaf ([11]; 125 g ai/ha): 10 | Plant response rating, Velvetleaf ([11]; 500 g ai/ha): 90 | Plant response rating, Morningglory ([12]; 125 g ai/ha): 0 | Plant response rating, Morningglory ([12]; 500 g ai/ha): 50 | Plant response rating, Barnyardgrass ([13]; 31 g ai/ha, scale 0 to 100): 0 | Plant response rating, Barnyardgrass ([13]; 62 g ai/ha, scale 0 to 100): 0 | Plant response rating, Barnyardgrass ([13]; 125 g ai/ha, scale 0 to 100): 0 | Plant response rating, Barnyardgrass [13, 21]: 0 | Plant response rating, Rice ([14]; 31 g ai/ha): 0 | Plant response rating, Rice ([14]; 62 g ai/ha): 0 | Plant response rating, Rice ([14]; 125 g ai/ha): 0 | Plant response rating, Rice ([14]; 250 g ai/ha): 0 | Plant response rating, Pigweed ([15]; 125 g ai/ha): 30 | Plant response rating, Pigweed ([15]; 500 g ai/ha): 100 | Plant response rating, Barnyardgrass ([16]; 125 g ai/ha): 70 | Plant response rating, Barnyardgrass ([16]; 500 g ai/ha): 80 | Plant response rating, Corn ([17]; 125 g ai/ha): 0 | Plant response rating, Corn ([17]; 500 g ai/ha): 50 | Plant response rating, Foxtail, Giant ([18]; 125 g ai/ha): 90 | Plant response rating, Foxtail, Giant ([18]; 500 g ai/ha): 100 | Plant response rating, Corn ([19]; 125 g ai/ha): 0 | Plant response rating, Corn ([19]; 500 g ai/ha): 50 | Plant response rating, Barnyardgrass ([20]; 125 g ai/ha): 70 | Plant response rating, Barnyardgrass ([20]; 500 g ai/ha): 100
